We go through twelve molecules from patent US20030083271A1, “Topoisomerase I selective cytotoxic sugar derivatives of indolopyrrolocarbazoles” (priority 2001, published 2003).

Some results are limits rather than exact numbers.

In assay [1] the test system is P388/CPT45 cells. The assay is described as follows: Cytotoxicity in camptothecin-resistant P388/CPT45 cells relative to parental P388 (selectivity index R/S). The assay is classed as cell-based, murine. Conditions: IC50 P388/CPT45 cells divided by IC50 parental P388 cells. From the text:
The present invention includes fluoro sugar and other sugar derivatives of indolopyrrolocarbazoles of formula (I), as defined above. […] Most importantly, the instant invention describes topo I active compounds, related to compounds disclosed in WO 98/07433 and co-pending U.S. application, Ser. No. 08/914566 (both herein incorporated by reference), which display a surprising and unexpected selectivity index when evaluated for cytotoxicity in certain cell lines which express normal levels of topo I required for cell proliferation, compared with cell lines that are deficient in or underexpress topo I. Said “selectivity index” (R/S) was generated by dividing the cytotoxic IC50 of a particular compound against a camptothecin-resistant murine leukemia cell line, P388/CPT45, by the IC50 generated when using the parent P388 cell line. […] A level of selectivity was judged to be advantageous and beneficial in, for example, modulating potential undesirable side effects and/or toxicity. The compounds of the present invention were selected from compounds generically disclosed in WO 98/07433 and co-pending U.S. patent application, Ser. No. 08/914566, on the basis of an unexpected and unpredictable selectivity index (see Table I and II). […] Simple changes in the substitution of the sugar portion or the indolopyrrolocarbazole portion of the present invention will change the selectivity. This change in selectivity is not predictable by one skilled in the art.
(§1) Similarly, P338 murine leukemia cells were maintained in RPMI 1640 supplemented with 20% fetal bovine serum and 10 μM 2-mercaptoethanol. A camptothecin resistant subline, P388/CPT45, was selected for resistance to camptothecin and is over 1000-fold resistant to this compound (Woessner, et al. Oncol. Res. 1992, 4, 481-488).
(§2) In vitro cytotoxicity was assessed in tissue culture cells by MTS (3-(4,5-dimethylthiazol-2-yl)-5-(3-carboxymethoxyphenyl)-2-(4-sulphenyl)-2H-tetrazolium, inner salt) assay (Riss and Moravec, Mol. Biol. Cell 1992, 3 (Suppl.), 184a). Cells were plated at 8,000 cell/well in 96 well microtiter plates and 24 hours later serial dilutions of the test compounds were made and added to the cells. The cells were incubated at 37° C. for 72 hours, at which time the tetrazolium dye, MTS at 333 μg/ml (final concentration), in combination with the electron coupling agent phenazine methosulfate at 25 μM (final concentration) was added. A dehydrogenase enzyme in live cells reduces the MTS to a form that absorbs light at 492 nm which can be quantitated spectrophotometrically. The greater the absorbance the greater the number of live cells. The results are expressed as an IC50, which is the drug concentration required to inhibit cell proliferation (i.e., absorbance at 492 nm) to 50% of that of untreated control cells.
The selectivity index (R/S) is defined as the ratio obtained by dividing the IC50 value obtained using P388/CPT45 cells by that obtained using parental P388 cells. The R/S ratios used to determine the relative topo I selectivity of selected compounds of this invention are shown below in Table I.

Assay [2] relates to P388 murine leukemia cells. Briefly: In vitro cell-based cytotoxicity, parental P388 cells. Conditions: Mus musculus, 72 h, median cytotoxic concentration, 3 days continuous exposure. As for the experimental part:
The proliferation inhibition activity against the murine P388 cell line was measured as follows. Evaluation of a soluble tetrazolium/formazan assay for cell growth and drug sensitivity in culture, using human and other tumor cell lines, was done according to the procedure described in Cancer Res. 1988, 48, 4827-4833. Cells were plated at 4000 cells/well in 96 well microtiter plates and 24 h later drugs were added and serially diluted. The cells were incubated at 37° C. for 72 h, at which time a tetrazolium dye, XTT, containing phenazine methosulfate was added. A dehydrogenase enzyme in live cells reduced the XTT to a form that absorbs light at 450 nm, which could be quantitated spectrophotometrically. The greater the absorbance the greater the number of live cells. The results are expressed as an IC50, which is the drug concentration required to inhibit cell proliferation (i.e., absorbance at 450 nm) to 50% of that of untreated control cells.
as §1, §2
The cytotoxic activity for certain compounds of the present invention, in both parental P388 and the camptothecin-resistant P388/CPT45 cell lines are shown below in Table I.

The target of assay [3] is T1, purified human topoisomerase I (Homo sapiens, UniProt P11387).
T1 construct: purchased Topogen
T1 sequence (P11387 1-765): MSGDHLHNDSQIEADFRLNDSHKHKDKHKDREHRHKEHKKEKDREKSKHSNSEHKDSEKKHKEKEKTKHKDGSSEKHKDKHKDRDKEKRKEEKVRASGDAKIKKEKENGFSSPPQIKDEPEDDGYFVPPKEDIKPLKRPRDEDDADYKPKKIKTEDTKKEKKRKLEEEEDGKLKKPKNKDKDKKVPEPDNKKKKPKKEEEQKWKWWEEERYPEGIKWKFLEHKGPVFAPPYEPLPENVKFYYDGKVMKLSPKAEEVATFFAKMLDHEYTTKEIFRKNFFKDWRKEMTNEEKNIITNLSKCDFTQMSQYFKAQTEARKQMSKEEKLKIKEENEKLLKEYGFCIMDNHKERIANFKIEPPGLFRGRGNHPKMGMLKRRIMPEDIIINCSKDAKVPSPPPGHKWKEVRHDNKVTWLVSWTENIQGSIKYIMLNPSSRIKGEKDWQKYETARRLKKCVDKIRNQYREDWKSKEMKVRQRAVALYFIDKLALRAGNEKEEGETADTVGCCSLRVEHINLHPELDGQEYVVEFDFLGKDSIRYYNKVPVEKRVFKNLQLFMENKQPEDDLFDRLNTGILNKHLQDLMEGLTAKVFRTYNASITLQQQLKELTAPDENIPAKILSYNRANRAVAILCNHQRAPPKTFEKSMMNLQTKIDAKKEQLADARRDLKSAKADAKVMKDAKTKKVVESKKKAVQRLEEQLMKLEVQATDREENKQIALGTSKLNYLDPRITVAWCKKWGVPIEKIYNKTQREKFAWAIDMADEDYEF
The assay is described as follows: Topoisomerase I-mediated single strand DNA break induction (in vitro). The assay is classed as biochemical. Conditions: median effect concentration for inducing single-strand breaks in the DNA substrate; read-out: Topo I EC50. As for the experimental part: Topoisomerase I activity was measured as described below. The procedure for assaying compound-induced, topoisomerase I-mediated single strand breaks in DNA was essentially that described by Hsiang, et al., (J. Biol. Chem. 1985, 260, 14873-14878). Samples dissolved in 100% DMSO as either […] or 10 mg/ml solutions, unless otherwise stated, were diluted in Tris-EDTA buffer. Marine bacteriophage PM2 DNA (Boehringer Mannheim) was also diluted in Tris-EDTA buffer to a concentration of 0.02 μg/μl. Different dilutions of the compound being evaluated were mixed with diluted DNA and this mixture was added to […] (one unit of enzyme activity is defined as the amount capable of relaxing 100 ng of supercoiled DNA in approximately 30 minutes at 37° C.) aliquots of purified human topoisomerase I (Topogen) in 2X reaction buffer to start the reaction. The compound-DNA-enzyme mixture was incubated for 30 minutes at 37° C. before stopping the reaction with warm stop buffer containing sodium dodecyl sulfate and proteinase K (Sigma). These mixtures were allowed to incubate at 37° C. for another 10 minutes, at which time the mixtures were removed from the waterbath and extracted with a 24:1 mixture of chloroform/isoamyl alcohol. Following centrifugation, aliquots of the aqueous phases were placed in wells of a 0.9% agarose (SeaKem) gel in Tris-borate buffer containing 0.5 μg/ml of ethidium bromide and subjected to electrophoresis for 15 hours to separate the different topological isomers and nicked and broken DNAs. After destaining the gel in water, the ethidium bromide stained DNA reaction products were visualized by exposing the gel to UV irradiation. Negatives of the photographs of the irradiated gels were scanned with a densitometer and areas under the peaks were calculated in order to obtain percent single strand DNA break formation for each sample. A median effective concentration (EC50) was obtained for each compound by interpolation between points of the resulting dose-effect curve which defines the potency of the compound for its effect in inducing topoisomerase I-mediated single strand breaks in DNA. The topoisomerase I activities for certain compounds of the present invention are shown below in Table I.

For orientation: IC50 means the concentration that inhibits the measured activity by half. `CC(C)CC(N)C(=O)O[C@H]1[C@H](n2c3cc(F)c(F)cc3c3c4c(c5c6cc(F)c(F)cc6[nH]c5c32)C(=O)NC4=O)O[C@H](CF)C[C@@H]1O` (stereo in doubt) [Example 5, 12-[4,6-Dideoxy-6-fluoro-2-O-leucyl-β-D-glucopyranosyl]-2,3,9,10-tetrafluoro-12,13-dihydro-5H-indolo[2,3-a]pyrrolo[3,4-c]carbazole-5,7(6H)-dione]: in assay [1], the “Selectivity Index R/S” value is listed as 112.5. The IC50 in assay [2] stood at 32 nM.
In general, EC50 refers to the midpoint of the concentration-response curve. With `O=C(O)CSC[C@H]1O[C@@H](n2c3ccc(F)cc3c3c4c(c5c6cc(F)ccc6[nH]c5c32)C(=O)NC4=O)[C@H](O)[C@@H](O)[C@@H]1O` [Example 1], the “Selectivity Index R/S” value in assay [1] is 101.7. In addition, the IC50 in assay [2] is 57 nM. Moreover, the EC50 in assay [3] came out at 50 nM.
The matching figures for `O=C1NC(=O)c2c1c1c3cc(F)ccc3sc1c1c2c2cc(F)ccc2n1[C@@H]1O[C@H](CF)[C@@H](O)[C@H](O)[C@H]1O` [Example 3]: 110.4, 16 nM and 60 nM.
The matching figures for `O=C1NC(=O)c2c1c1c3cc(F)ccc3[nH]c1c1c2c2cc(F)ccc2n1[C@@H]1O[C@H](CF)[C@H](O)[C@H](O)[C@H]1O` [Example 4, 12-[6-Deoxy-6-fluoro-β-D-galactopyranosyl]-3,9-difluoro-12,13-dihydro-5H-indolo[2,3-a]pyrrolo[3,4-c]carbazole-5,7(6H)-dione]: 110.9, 12 nM and 220 nM.
The corresponding values for `NC[C@H]1O[C@@H](n2c3ccc(F)cc3c3c4c(c5c6cc(F)ccc6sc5c32)C(=O)NC4=O)[C@H](O)[C@@H](O)[C@@H]1O` [Example 6] are >116.3, 68 nM and 70 nM.
Consider `C[S+]([O-])C[C@H]1O[C@H](n2c3ccc(F)cc3c3c4c(c5c6cc(F)ccc6[nH]c5c32)C(=O)NC4=O)[C@H](O)[C@@H](O)[C@@H]1O` (some centres unmarked) [Example 7], for which the “Selectivity Index R/S” value in assay [1] was >116.4. In addition, the half-inhibitory concentration (IC50) in assay [2] is 76 nM. The 50% effective concentration (EC50) in assay [3] worked out at 10 nM.
Regarding `C[C@@H]1C[C@H](O)[C@@H](O)[C@H](n2c3ccc(F)cc3c3c4c(c5c6cc(F)ccc6[nH]c5c32)C(=O)NC4=O)O1` [Example 11, 12-[4,6-Dideoxy-β-D-glucopyranosyl]-3,9-difluoro-12,13-dihydro-5H-indolo[2,3-a]pyrrolo[3,4-c]carbazole-5,7(6H)-dione], the “Selectivity Index R/S” value in assay [1] was found to be 125.3. In addition, the 50% inhibitory concentration (IC50) in assay [2] was 16 nM.
The corresponding values for `C[C@]1(O)C[C@@H](CO)O[C@@H](n2c3cc(F)c(F)cc3c3c4c(c5c6cc(F)c(F)cc6[nH]c5c32)C(=O)NC4=O)[C@@H]1O` [Example 18, 12-[4-Deoxy-3-methyl-β-D-glucopyranosyl]-2,3,9,10-tetrafluoro-12,13-dihydro-5H-indolo[2,3-a]pyrrolo[3,4-c]carbazole-5,7(6H)-dione] are 184.8 and 8 nM.
For `CNCC(=O)NC[C@H]1O[C@@H](n2c3ccc(F)cc3c3c4c(c5c6cc(F)ccc6sc5c32)C(=O)NC4=O)[C@H](O)[C@@H](O)[C@@H]1O` [Example 23, 12-[6-Deoxy-6-[(N-methylglycinyl)amino]-β-D-glucopyranosyl]-3,9-difluoro-5H, 13H-benzo[b]thienyl[2,3-a]pyrrolo[3,4-c]carbazole-5,7(6H)-dione], the “Selectivity Index R/S” value in assay [1] is reported as 306.8. Besides, the IC50 in assay [2] worked out at 25 nM.
Turning to `C[C@@]1(O)C[C@@H](CO)O[C@@H](n2c3cc(F)c(F)cc3c3c4c(c5c6cc(F)c(F)cc6[nH]c5c32)C(=O)NC4=O)[C@@H]1O` [Example 29, 12-[4-Deoxy-3-methyl-β-D-allopyranosyl]-2,3,9,10-tetrafluoro-12,13-dihydro-5H-indolo[2,3-a]pyrrolo[3,4-c]carbazole-5,7(6H)-dione], the “Selectivity Index R/S” value in assay [1] came to 539.6. Moreover, the IC50 in assay [2] worked out at 5 nM.
The corresponding values for `O=C1NCc2c1c1c3cc(F)ccc3[nH]c1c1c2c2cc(F)ccc2n1[C@@H]1O[C@H](CO)[C@@H](F)[C@H](O)[C@H]1O` [Example 32, 12-[4-Deoxy-4-fluoro-β-D-glucopyranosyl]-3,9-difluoro-12,13-dihydro-5H-indolo[2,3-a]pyrrolo[3,4-c]carbazole-5(6H)-one] are 1051.8 and 5 nM.
Take `O=C1NCc2c1c1c3cc(F)ccc3n([C@@H]3O[C@H](CO)[C@@H](F)[C@H](O)[C@H]3O)c1c1[nH]c3ccc(F)cc3c21` [Example 34, 12-[4-Deoxy-4-fluoro-β-D-glucopyranosyl)-3,9-difluoro-12,13-dihydro-5H-indolo[2,3-a]pyrrolo[3,4-c]carbazole-7(6H)-one]: in assay [1], the “Selectivity Index R/S” value came to 2859.5. Further, the IC50 in assay [2] is 2 nM.
